Measurements reported in publication PMC5331435, “Metabolism of Zearalenone and Its Major Modified Forms in Pigs” (Toxins, 2017).
“Also recorded” adds a separate entry of the source.

What was measured:
[1] = oral dose, cited from earlier work; for Recovery in rats: rats (ZEN-14-Glc as ZEN equivalents)
[2] = difference of hydrolyzed and untreated urine; cited from earlier work
human gut microbiota = details: cited from earlier work; for Share hydrolyzed after incubation with human gut microbiota: four hours; for Dose converted to unidentified metabolites / not recovered as identified metabolites / Dose detected as the aglycone (ZEN, α-ZEL or β-ZEL): incubation with human gut microbiota
human Caco-2/TC7 cells = details: after six and 24 h; cited from earlier work
[3] = pigs, cited from earlier work
[4] = Excretion and biological recovery of ZEN and its metabolites in urine and feces of piglets after a single oral bolus (HPLC-MS/MS); assay type: in vivo, pigs; details: for Hydrolysis in the gastrointestinal tract of pigs: oral application, conclusion from excreta analysis
Method: Four castrated male weaning piglets (sow: Landrace × Large White, boar: Pietrain; 33–35 days old, 7.9 ± 0.6 kg) were obtained from a local producer in Lower Austria. Animals were housed separately in metabolic cages in total for 22 days and were allowed to acclimatize for five days before the start of the experiment. They had free access to water and feed was provided twice per day (semi ad libitum). The diet was analyzed for its concentration of ZEN and naturally occurring metabolites thereof.
(§1) Using a repeated measures design, the piglets (n = 4) received water (negative control), ZEN (10 µg/kg b.w.; positive control) and the equimolar dose of ZEN-14-S (12.5 µg/kg b.w.), ZEN-16-Glc (15.1 µg/kg b.w.) and ZEN-14-Glc (15.1 µg/kg b.w.) per gavage (orogastric application) on day 1, 3, 7, 11, and 15 of the experiment, respectively. From the stock solutions containing between 991 (ZEN-14-S) and 1274 (ZEN-14-Glc) µg/mL of the analytes the adequate volumes for the animal experiment were removed and diluted with water for the oral application to obtain 5 µg/mL ZEN and the equimolar concentration of the other analytes in the aqueous stock solutions. Using polyvinyl chloride catheters (diameter 4.7 mm, Ch 14, mpö pfm GesmbH (Klagenfurt, Austria), length was adapted to the size of the esophagus of the piglets), volumes between 16 and 30 mL of the aqueous stock solutions were orally administered to the piglets, considering the piglets’ weight. After the toxin application, 10 mL of water was used to flush the catheter. Urine and feces of each of the piglets were quantitatively collected for the periods 0–24 h and 24–48 h after dosing. Urine was measured volumetrically on site and all excreta samples were stored at −20 °C until lyophilization (feces) or sample preparation and analysis (urine). The general condition of the animals was observed daily during the experiment.
Urine samples were diluted 1:5000 with water and the creatinine content was determined by LC-MS/MS as described earlier. For determination of ZEN, its plant and fungal metabolites and their metabolites in pigs, urine samples were diluted to 0.2 mM creatinine with water and centrifuged prior to HPLC-MS/MS analysis.
Five-hundred milligram aliquots of freeze-dried and thoroughly homogenized feces samples were extracted three times (90/30/30 min) with 5 mL each of ACN/water (50/50, v/v) on a GFL rotary shaker (type 3017, Burgwedel, Germany). After each extraction step, samples were clarified by centrifugation (10 min, 12,500 rpm, GS-15 centrifuge, Beckman Coulter, Indianapolis, IN, USA). Aliquots of the pooled supernatants were centrifuged and measured by HPLC-MS/MS.
Analysis of the feces and urine samples was performed on a 1290 Infinity series UHPLC system (Agilent Technologies, Waldbronn, Germany) coupled to a 6500 QTrap mass spectrometer equipped with an IonDrive TurboV source (Sciex, Foster City, CA, USA). Analyst software version 1.6.2 (Sciex, Foster City, CA, USA) was used for instrument control and data analysis. Chromatographic separation was carried out on a Kinetex Biphenyl column (150 mm × 3 mm, 2.6 µm, Phenomenex, Aschaffenburg, Germany). Eluent A consisted of water/acetic acid (99.9/0.1, v/v), eluent B was composed of ACN/acetic acid (99.9/0.1, v/v). […] At 14 min, 100% was reached which was held until 16.9 min. Afterwards, the column was re-equilibrated at 15% B for 3 min, resulting in a total run time of 20 min. The flow rate was 400 µL/min, the column temperature was 30 °C and the injection volume was 2 µL. Mass spectrometric detection was performed in negative electrospray ionization mode and selected reaction monitoring (SRM) was applied as scan type. The source settings were as follows: source temperature 400 °C, ion spray voltage −4500 V, curtain gas 35 psi (ca. 240 kPa), ion source gas 1 at 55 psi (ca. 379 kPa) and gas 2 at 65 psi (ca. 448 kPa), collision gas (nitrogen) high. […]

[5] = design: method as in earlier work; details: humans, based on studies in pigs; cited from earlier work
piglets = assay: Observation of clinical symptoms in treated piglets; assay type: in vivo, pigs; details: single orogastric bolus, 10 µg/kg b.w. ZEN or equimolar dose, four piglets
Method: For animal welfare considerations, amounts of administered toxins were chosen on the basis of no-observed-effect-levels of 10 µg/kg body weight per day for oral application in pigs. In short, four piglets received a single orogastric bolus of ZEN (10 µg/kg b.w.) and of its plant or fungal metabolites (at equimolar dose), respectively, using a repeated measures design.
as §1, with “Using polyvinyl chloride catheters (diameter 4.7 mm, Ch 14, mpö pfm GesmbH (Klagenfurt, Austria), length was adapted to the size of the esophagus of the piglets), volumes between 16 and 30 mL of the aqueous stock solutions were orally administered to the piglets, considering the piglets’ weight. After the toxin application, 10 mL of water was used to flush the catheter.” left out, “The general condition of the animals was observed daily during the experiment.” left out

uterus weight = system: uterus weight; design: method as in PMID 1827972; details: intragastric, rats n = 6 per treatment; cited from earlier work
[6] = system: human intestinal bacteria; design: method as in PMID 23347206; details: human in vitro model; cited from earlier work
[7] = system: intestinal bacteria from human fecal slurry; design: method as in PMID 24386883; details: cited from earlier work
[8] = design: method as in PMID 27856298; details: in vitro; cited from earlier work
[9] = system: human breast cancer cells (MCF7); design: method as in PMID 26792714; details: MCF7 including fetal bovine serum; cited from earlier work
human estrogen receptor = system: human estrogen receptor; design: method as in PMID 16751557; details: cited from earlier work
[10] = design: method as in PMID 2143610; details: contaminated feed, one pig; cited from earlier work
[11] = after oral administration, piglets
[12] = urine samples after oral administration, piglets

[13CH3][13C@H]1[13CH2][13CH2][13CH2][13C](=O)[13CH2][13CH2][13CH2]/[13CH]=[13CH]/[13c]2[13cH][13c](O)[13cH][13c](O)[13c]2[13C](=O)O1 [^13C-labeled ZEN]
Recovery in rats [1]: 74%

C[C@H]1CCC[C@H](O)CCC/C=C/c2cc(O)cc(O)c2C(=O)O1 [α-ZEL, α-zearalenol]
Glucuronidation in pig urine [2]: 88%
Glucuronidation in urine [2]: 75%

C[C@H]1CCC[C@@H](O)CCC/C=C/c2cc(O)cc(O)c2C(=O)O1 [β-ZEL, β-zearalenol]
Glucuronidation in pig urine [2]: 94%
Glucuronidation in urine [2]: 56%

CC1CCCC(O)CCCC=Cc2cc(OC3OC(CO)C(O)C(O)C3O)cc(O)c2C(=O)O1 (stereo not drawn) [α-ZEL-14-Glc]
Share hydrolyzed after incubation with human gut microbiota (human gut microbiota): over 97%
Dose converted to unidentified metabolites / not recovered as identified metabolites (human gut microbiota): 40%
Dose detected as the aglycone (ZEN, α-ZEL or β-ZEL) (human gut microbiota): 60%
Amount detected in the basolateral compartment (human Caco-2/TC7 cells): only traces

C[C@H]1CCCC(=O)CCC/C=C/c2cc(O)cc(O)c2C(=O)O1 [ZEN, zearalenone]
Mean percentage of ingested ZEN excreted into urine ([3]; 24 h after application): 28.4%
Biological recovery of intravenously administered ZEN ([3]; intravenous): 77%
Part eliminated via urine within 12 h ([3]; intravenous): 44%
Terminal elimination half-life ([3]; intravenously administered): 2.63 h
Biological recovery of orally administered radiolabeled ZEN ([3]; oral, after 48 h): 67%
Radioactive ZEN excreted in bile that was reabsorbed into the systemic blood system [3]: about 85%
Detection of β-ZEL in urine and feces [4, 11]: neither be detected in urine nor in feces samples
Glucuronidation in pig urine [2]: 27%
Glucuronidation in urine [2]: 23%
Tolerable daily intake (TDI) [5]: 0.25 µg/kg b.w.
Clinical symptoms during and after treatment (piglets): no clinical symptoms were observed

C[C@H]1CCCC(=O)CCC/C=C/c2cc(OS(=O)(=O)O)cc(O)c2C(=O)O1 [ZEN-14-S, zearalenone-14-sulfate]
Detection of the intact administered conjugate in urine and feces [4, 11]: neither detected in urine nor in feces samples
Detection of the intact administered conjugate in urine and feces ([4]; after oral administration, piglets, listed as ZEN-14-sulfate): neither detected in urine nor in feces
ZEN metabolites in feces ([4]; after oral application, piglets, listed as ZEN-14-sulfate): no ZEN metabolites were detected
Hydrolysis in the gastrointestinal tract of pigs [4]: rapidly hydrolyzed; also recorded: readily hydrolyzed to ZEN
Hydrolysis in the gastrointestinal tract of pigs ([4]; listed as ZEN-14-sulfate): completely hydrolyzed
Concentration of ZEN in urine ([4]; second sampling period (24–48 h), piglets): Only traces
Concentration of α-ZEL in urine [4, 12]: traces
Estrogenic activity (effect on uterus weight) (uterus weight): partially retained the estrogenic activities of ZEN
Hydrolysis upon incubation with human intestinal bacteria [6]: completely hydrolyzed within 30 min

C[C@H]1CCCC(=O)CCC/C=C/c2cc(O)cc(O[C@@H]3O[C@H](CO)[C@@H](O)[C@H](O)[C@H]3O)c2C(=O)O1 [ZEN-16-Glc, zearalenone-16-O-β-glucoside]
Detection of the intact administered conjugate in urine and feces [4, 11]: none of the glucosides could be detected in urine or feces
Detection of the intact administered conjugate in urine and feces ([4]; after oral administration, piglets, listed as ZEN-16-O-β-glucoside): neither detected in urine nor in feces
Hydrolysis in the gastrointestinal tract of pigs [4]: readily hydrolyzed to ZEN
Hydrolysis in the gastrointestinal tract of pigs ([4]; listed as ZEN-16-O-β-glucoside): completely hydrolyzed
Concentration of ZEN-14-GlcA in urine [4, 12]: traces
Residue in the fecal slurry ([7]; after two hours): no residue
Conversion by intestinal bacteria from human fecal slurry ([7]; within 30 min): nearly completely converted to ZEN within 30 min

C[C@H]1CCCC(=O)CCC/C=C/c2cc(O[C@@H]3O[C@H](CO)[C@@H](O)[C@H](O)[C@H]3O)cc(O)c2C(=O)O1 [ZEN-14-Glc, zearalenone-14-O-β-glucoside]
Hydrolysis in bovine serum, plasma and whole blood [8]: in vitro hydrolysis of ZEN-14-Glc and release of ZEN
Conversion by MCF7 cells [9]: convert ZEN-14-Glc to ZEN, α-ZEL and β-ZEL
Share hydrolyzed after incubation with human gut microbiota (human gut microbiota): over 97%
Dose converted to unidentified metabolites / not recovered as identified metabolites (human gut microbiota): 50%
Dose detected as the aglycone (ZEN, α-ZEL or β-ZEL) (human gut microbiota): 40%
Detection of the intact administered conjugate in urine and feces [4, 11]: none of the glucosides could be detected in urine or feces
Detection of the intact administered conjugate in urine and feces ([4]; after oral administration, piglets, listed as ZEN-14-O-β-glucoside): neither detected in urine nor in feces
Hydrolysis in the gastrointestinal tract of pigs [4]: readily hydrolyzed to ZEN
Hydrolysis in the gastrointestinal tract of pigs ([4]; listed as ZEN-14-O-β-glucoside): completely hydrolyzed
Recovery in rats [1]: 71%
Hydrolysis in the GI tract of rats ([1]; rats): partly hydrolyzed in the upper part of the GI tract
Interaction with the human estrogen receptor (human estrogen receptor): interrupted
Metabolization during digestion in the pig [10]: completely metabolized to ZEN and α-ZEL
Hydrolysis upon incubation with human intestinal bacteria [6]: completely hydrolyzed within 30 min
Amount detected in the basolateral compartment (human Caco-2/TC7 cells): only traces

C[C@H]1CCC[C@@H](O)CCC/C=C/c2cc(O[C@@H]3O[C@H](CO)[C@@H](O)[C@H](O)[C@H]3O)cc(O)c2C(=O)O1 [β-ZEL-14-Glc]
Share hydrolyzed after incubation with human gut microbiota (human gut microbiota): over 97%
Dose converted to unidentified metabolites / not recovered as identified metabolites (human gut microbiota): 70%
Dose detected as the aglycone (ZEN, α-ZEL or β-ZEL) (human gut microbiota): 30%
